From patent US5773459A, “Urea- and thiourea-type compounds” (Sugen, Inc., priority 1995, dated 1998)
Read-outs that look alike come from different tables or passages of the source.

What was measured:
Assay type in all cases: cell-based
PDGFR-beta = biological target: T1, PDGFR-beta (Homo sapiens, UniProt P09619); test: PDGF-R Cellular Assay (cellular kinase ELISA)
T1 construct: the human glioblastoma line U1242 that expresses PDGFR-beta; endogenous in cells; host or cells: U1242 (U1242 MG) human glioblastoma
Procedure: Growth assays were carried out using human mammary epithelial SKBR3 (ATCC HTB30) cells (SKBR3 cells over-express HER2), SKOV3 (ATCC HTB77) human ovarian cancer cell line (SKOV3 cells also over-express HER2), A431 cells (A431 cells over-express EGFR) MCF7 human breast carcinoma cells, MCF7 cells overexpressing the HER2 kinase (MCF7-HER2), NIH3T3 cells, and NIH3T3 cells overexpressing the HER2 kinase (3T3-HER2.
The PDGF cellular kinase assay was carried out as follows: cells are lysed in 0.2M Hepes, 0.15M NaCl, 10% V/V glycerol, 0.04% Triton X-100, 5 mM EDTA, 5 mM Na+ vanadate and 2 mM Na+ pyrophosphate; cell lysates are then added to an ELISA plate coated with an anti-PDGF receptor antibody (Genzyme); ELISA plates are coated at 0.5 μg of antibody/well in 150 μl of PBS for 18 hours at 4° C. prior to the addition of the lysate; the lysate is incubated in the coated plates for 1 hour and then washed four times in TBST (35 mM Tris-HCl pH 7.0, 0.15M NaCl, 0.1% Triton X100); anti-phosphotyrosine antibody (100 μl in PBS) is added and the mixture is incubated for 30 minutes at room temperature; the wells were then washed four times in TBST, a secondary antibody conjugated to POD (TAGO) is added to each well, and the treated well are incubated for 30 minutes at room temperature; the wells are then washed four times in TBST, ABTS/H2 O2 solution is added to each well and the wells are incubated for two minutes; absorbance is then measured at 410 nm.
U1242 MG cells were plated in 96-well plates at a concentration of 5×10^4 cells/well in cultured media containing 0.5% FBS. The cells were incubated for 24 hours. The cells were then treated with a particular compound for 2 hours followed by the addition of 100 ng/ml PDGF-BB and incubation for 10 minutes.
Cells were lysed in 0.2M Hepes, 0.15M NaCl, 10% V/V glycerol, 0.04% Triton X-100, 5 mM EDTA, 5 mM Na+ vanadate and 2 mM Na+ pyrophosphate. Cell lysates were then added to an ELISA plate coated with an anti-PDGF receptor antibody (Genzyme). ELISA plates were coated at 0.5 μg of antibody/well in 150 μl of PBS for 18 hours at 4° C. prior to the addition of the lysate.
The lysate was incubated in the coated plates for 1 hour and then washed four times in TBST (35 mM Tris-HCl pH 7.0, 0.15M NaCl, 0.1% Triton X-100). Anti-phosphotyrosine antibody (100 μl in PBS) was added and the mixture was incubated for 30 minutes at room temperature. The wells were then washed four times in TBST, a secondary antibody conjugated to POD (TAGO) was added to each well, and the treated well were incubated for 30 minutes at room temperature. The wells were then washed four times in TBST, ABTS/H2 O2 solution was added to each well and the wells were incubated for two minutes. Absorbance was then measured at 410 nm.

[1] = test system: NIH3T3 cells overexpressing the HER2 kinase (3T3-HER2); test: 3T3 Growth Assay (HER2-overexpressing 3T3 cells, SRB); conditions: Mus musculus
Description: (§1) The following examples illustrate the ability of the exemplary compounds to inhibit receptor tyrosine kinases, such as HER2 and/or EGFR. The following target cells were used for cellular kinase assays: NIH3T3 clone C7 (Honegger et al., supra) engineered to over-express human EGF receptor; NIH3T3 cells engineered to over-express a chimeric receptor containing the EGFR extracellular domain and the HER2 intracellular kinase domain; the human mammary carcinoma line BT474 (ATCC HTB2) expressing HER2; and the human glioblastoma line U1242 that expresses PDGFR-beta. Growth assays were carried out using human mammary epithelial SKBR3 (ATCC HTB30) cells (SKBR3 cells over-express HER2), SKOV3 (ATCC HTB77) human ovarian cancer cell line (SKOV3 cells also over-express HER2), A431 cells (A431 cells over-express EGFR) MCF7 human breast carcinoma cells, MCF7 cells overexpressing the HER2 kinase (MCF7-HER2), NIH3T3 cells, and NIH3T3 cells overexpressing the HER2 kinase (3T3-HER2.
The 3T3 growth assay was carried out as follows: […]
(1) HER2C7 (engineered to express HER2) and NIH3T3C7 (as the control) cells are used for this assay. […] Cells are incubated at 37° C., 5% CO2 overnight to allow for cell attachment to the plate;
(2) The […] compound is added to the cells at day 2. […] A total of 100 μl/well medium of the diluted compounds is added into the cells. The total volume of each well is 200 μl. Quadruplicates (wells) and 11 concentration points are applied to each compound tested.
(3) After the cells are treated with the compound for 4 days, the cells are washed with PBS and fixed with 200 μl/well ice-cold 10% TCA for one hour at 0°-5° C. condition.
(4) Remove TCA and rinse wells 5 times with deionized water. Dry plates upside down with paper towels. Stain cells with 0.4% SRB at 100 μl well for 10 minutes.
(5) Pour off SRB and rinse plate 5 times with 1% acetic acid. Dry plate completely.
(6) Solubilize the dye with 10 mM Tris-base at 100 μl/well for 10 minutes on a shaker.
(7) Read the plate at dual wavelengths at 570 nm and 630 nm on Dynatech Elisa plate reader.

[2] = test system: MCF7 human breast carcinoma cells; test: MCF-7 SRB Growth Assay; conditions: read-out: GROWTH DATA: MCF7 10% FBS
Description: as §1
MCF-7 cells are seeded at 2000 cells/ well in a 96-well flat bottom plate in normal growth media, which was 10% FBS/RPMI supplemented with 2 mM Glutamine. The plate of cells is incubated for about 24 hours at 37° C. after which it receives an equal volume of compound dilution per well making the total volume per well 200 μl. The compound is prepared at 2 times the desired highest final concentration and serially diluted in the normal growth media in a 96-well round bottom plate and then transferred to plate of cells. DMSO serves as the vector control up to 0.2% as final concentration. The cells are then incubated at 37° C. in a humidified 5% CO2 incubator.
Four days following dosing of compound, the media is 15 discarded and 200 μl/well of ice-cold 10% TCA (Trichloroacetic Acid) is added to fix cells. After 60 minutes at 4° C., the TCA is discarded and the plate is rinsed 5 times with water. The plate is then air-dried and 100 μl/well of 0.4% SRB (Sulforhodamine B from Sigma) 20 in 1% Acetic Acid is added to stain cells for 10 minutes at room temperature. The SRB is discarded and the plate is rinsed 5 times with 1% Acetic Acid. After the plate is completely dried, 100 μl/well of 10 mM Tris-base is added to solubilize the dye. After 5 to 10 minutes, the plate is read on a Dynatech ELISA Plate Reader at dual wavelengths at 570 nm and 630 nm.

[3] = U1242 MG cells, PDGF-BB stimulated, read-out: ELISA DATA: PDGFR
[4] = read-out: GROWTH DATA: 3T3/HER2 2% FBS
[5] = read-out: GROWTH DATA: 3T3/HER2 10% FBS

T1 sequence (P09619 33-1106): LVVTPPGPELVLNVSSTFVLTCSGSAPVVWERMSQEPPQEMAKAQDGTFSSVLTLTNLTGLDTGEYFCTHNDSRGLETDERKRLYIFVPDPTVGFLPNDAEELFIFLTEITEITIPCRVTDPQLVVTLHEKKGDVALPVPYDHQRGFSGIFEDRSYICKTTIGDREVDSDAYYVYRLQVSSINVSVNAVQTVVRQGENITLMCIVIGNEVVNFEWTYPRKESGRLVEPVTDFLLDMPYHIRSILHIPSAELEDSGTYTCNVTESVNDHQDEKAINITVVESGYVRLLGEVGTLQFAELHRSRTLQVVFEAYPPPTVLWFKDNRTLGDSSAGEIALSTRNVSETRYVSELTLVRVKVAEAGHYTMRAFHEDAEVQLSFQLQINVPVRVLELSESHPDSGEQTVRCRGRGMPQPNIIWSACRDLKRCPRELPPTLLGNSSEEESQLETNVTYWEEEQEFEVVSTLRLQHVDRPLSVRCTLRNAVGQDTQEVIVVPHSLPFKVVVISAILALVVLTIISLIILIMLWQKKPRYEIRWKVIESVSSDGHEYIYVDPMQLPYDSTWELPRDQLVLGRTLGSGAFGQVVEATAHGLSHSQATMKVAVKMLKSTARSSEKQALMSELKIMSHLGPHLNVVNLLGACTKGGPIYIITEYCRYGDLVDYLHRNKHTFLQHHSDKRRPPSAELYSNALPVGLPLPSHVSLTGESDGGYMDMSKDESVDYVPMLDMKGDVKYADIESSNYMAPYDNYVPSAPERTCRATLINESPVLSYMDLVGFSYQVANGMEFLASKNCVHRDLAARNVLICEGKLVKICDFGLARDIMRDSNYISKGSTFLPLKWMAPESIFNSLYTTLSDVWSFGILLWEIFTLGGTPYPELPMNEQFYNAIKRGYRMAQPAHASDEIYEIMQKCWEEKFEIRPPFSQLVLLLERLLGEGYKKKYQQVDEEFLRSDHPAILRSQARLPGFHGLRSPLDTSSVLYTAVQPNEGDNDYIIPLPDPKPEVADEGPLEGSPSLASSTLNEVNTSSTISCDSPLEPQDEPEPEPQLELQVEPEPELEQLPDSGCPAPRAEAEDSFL

SMILES: CC(C)S(=O)(=O)c1csc(NC(=O)Nc2ccc(C(C)(C)C)cc2)c1Cl [Example Z1, N-[3-Chloro-4-(isopropylsulfonyl)thien-2-yl]-N'-(4-t-butylphenyl)urea]
- IC50 (PDGFR-beta; [3]): > 50 µM
- IC50 [1, 4]: 1 µM
- IC50 [1, 5]: 15 µM
- IC50 [2]: 5000 nM

SMILES: N#Cc1ccc(NC(=S)Nc2ccc(S(=O)(=O)N3CCCCC3)cc2)cc1 [Example Z4, N-(4-Cyanophenyl)-N'-[4-[(piperid-1-yl)sulfonyl]phenyl]thiourea]
- IC50 (PDGFR-beta; [3]): > 100 µM
- IC50 [2]: 3000 nM

SMILES: CC(C)S(=O)(=O)c1csc(NC(=O)Nc2cc(C(F)(F)F)cc(C(F)(F)F)c2)c1Cl [Example Z2, N-[3-Chloro-4-(isopropylsulfonyl)thien-2-yl]-N'-(3,5-di-trifluoromethylphenyl)urea]
- IC50 (PDGFR-beta; [3]): > 50 µM
- IC50 [1, 4]: 0.6 µM
- IC50 [1, 5]: 18 µM
- IC50 [2]: 1000 nM

SMILES: O=C(Nc1ccc(SC(F)(F)F)cc1)Nc1ccc(Oc2ccc(Cl)cc2Cl)nc1 [Example Z3]
- IC50 (PDGFR-beta): > 100 µM
- IC50 [1, 4]: 0.35 µM
- IC50 [1, 5]: 18 µM
- IC50 [2]: 2000 nM
